Source: patent publication US9434711B2 (Janssen Pharmaceutica, NV, priority 2007, dated 2016)
One block for each molecule: values may come before it.

Target: canine TRPM8 (Canis lupus familiaris, UniProt Q1A7N1)
Assay: In Vitro Canine TRPM8 Functional Assay (Ca2+ fluorescence, icilin activation)
Type: cell-based
Details: for IC50: HEK293 cells stably expressing canine TRPM8, icilin activation, eight-point dose-response, read-out: IC50; for inhibition at 0.2 µM: read-out: % Inh @ 0.2
Outline: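 Canine TRPM8 stably expressed in HEK293; compound added 5 min before icilin challenge (~80% max response), with fluorescent Ca2+ signal tracked throughout.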

[1] = compound at 0.2 μM, canine TRPM8, icilin activation

Chain of canine TRPM8 (Q1A7N1 1-1104): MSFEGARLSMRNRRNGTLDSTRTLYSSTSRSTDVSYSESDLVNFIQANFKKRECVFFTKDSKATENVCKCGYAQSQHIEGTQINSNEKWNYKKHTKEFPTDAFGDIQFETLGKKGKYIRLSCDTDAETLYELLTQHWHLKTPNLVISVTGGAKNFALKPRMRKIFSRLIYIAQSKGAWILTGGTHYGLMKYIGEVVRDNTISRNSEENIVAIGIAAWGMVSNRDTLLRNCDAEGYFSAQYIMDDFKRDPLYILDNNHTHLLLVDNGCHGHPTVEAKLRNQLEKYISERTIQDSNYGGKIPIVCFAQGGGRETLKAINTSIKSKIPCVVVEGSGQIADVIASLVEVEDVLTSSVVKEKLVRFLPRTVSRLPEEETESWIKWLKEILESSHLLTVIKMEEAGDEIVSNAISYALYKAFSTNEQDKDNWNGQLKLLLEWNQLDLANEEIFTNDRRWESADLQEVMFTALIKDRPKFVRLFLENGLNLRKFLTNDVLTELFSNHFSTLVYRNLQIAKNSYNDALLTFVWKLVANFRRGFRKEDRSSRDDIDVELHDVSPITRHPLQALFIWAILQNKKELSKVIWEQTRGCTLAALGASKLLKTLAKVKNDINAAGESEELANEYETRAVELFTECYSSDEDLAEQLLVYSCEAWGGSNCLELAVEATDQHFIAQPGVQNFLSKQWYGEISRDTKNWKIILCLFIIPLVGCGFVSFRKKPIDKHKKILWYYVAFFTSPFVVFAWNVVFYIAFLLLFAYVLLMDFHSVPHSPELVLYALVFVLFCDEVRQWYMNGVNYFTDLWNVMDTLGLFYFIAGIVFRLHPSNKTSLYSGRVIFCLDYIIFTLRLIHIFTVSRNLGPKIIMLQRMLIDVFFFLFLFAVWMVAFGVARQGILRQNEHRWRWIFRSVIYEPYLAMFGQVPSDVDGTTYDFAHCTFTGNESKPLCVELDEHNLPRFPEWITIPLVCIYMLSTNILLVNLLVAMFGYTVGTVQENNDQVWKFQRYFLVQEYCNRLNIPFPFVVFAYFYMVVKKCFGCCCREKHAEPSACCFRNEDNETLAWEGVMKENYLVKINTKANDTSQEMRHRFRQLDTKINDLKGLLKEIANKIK

Compound: CCCCN(c1sc2ccccc2c1C=O)S(=O)(=O)c1ccc(C(=O)OC)cc1 [Compound 419, N-(Butyl)-N-(3-formyl-benzo[b]thiophene-2-yl)-4-carbomethoxy-benzenesulfonamide]
IC50: 0.345 µM
inhibition at 0.2 µM [1]: 74%

Compound: O=S1(=O)C(N(Cc2ccc(F)c(C(F)(F)F)c2)S(=O)(=O)c2ccccc2)=Cc2ccccc21 [Compound 421, N-(4-Fluoro-3-trifluoromethyl-benzyl)-N-(1,1-dioxo-benzo[b]thiophen-2-yl)-benzenesulfonamide]
IC50: 0.064 µM
inhibition at 0.2 µM [1]: 90%

Compound: O=S(=O)(c1ccc(-c2nnn[nH]2)cc1)N(Cc1ccc(F)c(C(F)(F)F)c1)c1cc2ccccc2s1 [Compound 424, N-(Benzo[b]thiophen-2-yl)-N-(4-fluoro-3-trifluoromethyl-benzyl)-4-(1H-tetrazol-5-yl)-benzenesulfonamide]
IC50: 0.007 µM
inhibition at 0.2 µM [1]: 95%

Compound: O=S(=O)(c1ccc(-c2nnn[nH]2)cc1)N(CCCC(F)(F)F)c1cc2ccccc2s1 [Compound 425, N-(Benzo[b]thiophen-2-yl)-N-(4,4,4-trifluoro-butyl)-4-(1H-tetrazol-5-yl)-benzenesulfonamide]
IC50: 0.079 µM
inhibition at 0.2 µM [1]: 86%

Compound: Cc1c(N(CCCC(F)(F)F)S(=O)(=O)c2ccc(C(=O)O)cc2)sc2cc(F)ccc12 [Compound 426, N-(6-Fluoro-3-methyl-benzo[b]thiophen-2-yl)-N-(4,4,4-trifluoro-butyl)-4-carboxy-benzenesulfonamide]
IC50: 0.03 µM
inhibition at 0.2 µM [1]: 95%

Compound: CCCCN(C1=Cc2ccccc2S1(=O)=O)S(=O)(=O)c1ccc(C(=O)OC)cc1 [Compound 430, N-(Butyl)-N-(1,1-dioxo-benzo[b]thiophen-2-yl)-4-carbomethoxy-benzenesulfonamide]
inhibition at 0.2 µM [1]: 52%

Compound: CCCCN(C1=Cc2ccccc2S1(=O)=O)S(=O)(=O)c1ccc(C(=O)O)cc1 [Compound 432, N-(Butyl)-N-(1,1-dioxo-1H-benzo[b]thiophen-2-yl)-4-carboxy-benzenesulfonamide]
inhibition at 0.2 µM [1]: 42%

Compound: CCCCN(C1=C(OC)c2ccccc2S1(=O)=O)S(=O)(=O)c1ccc(C(=O)O)cc1 [Compound 434, N-(Butyl)-N-(3-methoxy-1,1-dioxo-1H-benzo[b]thiophen-2-yl)-4-carboxy-benzenesulfonamide]
IC50: 0.017 µM
inhibition at 0.2 µM [1]: 90%

Compound: O=C(O)c1ccc(S(=O)(=O)N(CC2CCC2)c2sc3ccccc3c2Br)cc1 [Compound 437, N-(3-Bromo-benzo[b]thiophen-2-yl)-N-(cyclobutylmethyl)-4-carboxy-benzenesulfonamide]
IC50: 0.009 µM
inhibition at 0.2 µM [1]: 92%

Compound: O=C(O)c1ccc(S(=O)(=O)N(CC2CCCC2)c2sc3ccccc3c2Br)cc1 [Compound 438, N-(3-Bromo-benzo[b]thiophen-2-yl)-N-(cyclopentylmethyl)-4-carboxy-benzenesulfonamide]
IC50: 0.002 µM
inhibition at 0.2 µM [1]: 90%

Compound: O=C(O)c1ccc(S(=O)(=O)N(C[C@@H]2C[C@@H]3CC[C@H]2C3)c2sc3ccccc3c2Br)cc1 [Compound 439, RS,RS—N-(Bicyclo[2.2.1]heptan-2-ylmethyl)-N-(3-bromobenzo[b]thiophen-2-yl)-4-carboxy-benzenesulfonamide]
IC50: 0.002 µM
% Inh @ 0.2 (μM) [1]: 86%

Compound: O=C(O)c1ccc(S(=O)(=O)N(CC2CCOCC2)c2sc3ccccc3c2Br)cc1 [Compound 440, N-(3-Bromo-benzo[b]thiophen-2-yl)-N-((tetrahydro-2H-pyran-4-yl)methyl)-4-carboxy-benzenesulfonamide]
IC50: 0.014 µM
inhibition at 0.2 µM [1]: 84%

Compound: CCCCN(c1sc2ccccc2c1Br)S(=O)(=O)c1ccc(-c2noc(=O)[nH]2)cc1 [Compound 443, N-(3-Bromo-benzo[b]thiophen-2-yl)-N-(butyl)-4-(5-oxo-4,5-dihydro-[1,2,4]oxadiazol-3-yl)-benzenesulfonamide]
IC50: 0.014 µM
inhibition at 0.2 µM [1]: 94%

Compound: CCCCN(c1cc2ccccc2s1)S(=O)(=O)c1ccc(N2CCOCC2)cc1 [Compound 446, N-Benzo[b]thiophen-2-yl-N-(butyl)-4-morpholin-4-yl-benzenesulfonamide]
IC50: 0.096 µM
inhibition at 0.2 µM [1]: 82%

Compound: CCCCN(c1cc2ccccc2s1)S(=O)(=O)c1ccc(-c2nnn[nH]2)cc1 [Compound 449, N-(Benzo[b]thiophen-2-yl)-N-(butyl)-4-(1H-tetrazol-5-yl)-benzenesulfonamide]
IC50: 0.088 µM
inhibition at 0.2 µM [1]: 97%

Compound: CCCCN(c1sc2cc(F)ccc2c1C)S(=O)(=O)c1ccc(C(=O)O)cc1 [Compound 450, N-(6-Fluoro-3-methyl-benzo[b]thiophen-2-yl)-N-(butyl)-4-carboxy-benzenesulfonamide]
IC50: 0.029 µM
inhibition at 0.2 µM [1]: 101%

Compound: O=C(O)c1ccc(S(=O)(=O)N(CCCC(F)(F)F)c2cc3ccccc3s2)cc1 [Compound 451, N-(Benzo[b]thiophen-2-yl)-N-(4,4,4-trifluoro-butyl)-4-carboxy-benzenesulfonamide]
IC50: 0.068 µM
inhibition at 0.2 µM [1]: 97%

Compound: CC(C)CN(c1sc2ccccc2c1Br)S(=O)(=O)c1ccc(C(=O)O)cc1 [Compound 452, N-(3-Bromo-benzo[b]thiophen-2-yl)-N-(isobutyl)-4-carboxy-benzenesulfonamide]
IC50: 0.018 µM
inhibition at 0.2 µM [1]: 101%

Next, values leading:

inhibition at 0.2 µM [1]: 48%
Compound: CCCCN(c1sc2ccccc2c1CN(C)C)S(=O)(=O)c1ccc(C(=O)OC)cc1 [Compound 420, N-(3-Dimethylaminomethyl-benzo[b]thiophen-2-yl)-N-(butyl)-4-carbomethoxy-benzenesulfonamide]

IC50: 0.018 µM
inhibition at 0.2 µM [1]: 97%
Compound: CCCCN(c1sc2ccccc2c1OC)S(=O)(=O)c1ccc(C(=O)OC)cc1 [Compound 422, N-(Butyl)-N-(3-methoxy-benzo[b]thiophen-2-yl)-4-carbomethoxybenzenesulfonamide]

IC50: 0.007 µM
inhibition at 0.2 µM [1]: 93%
Compound: CCCCN(c1sc2ccccc2c1OC)S(=O)(=O)c1ccc(C(=O)O)cc1 [Compound 423, N-(Butyl)-N-(3-methoxy-benzo[b]thiophen-2-yl)-4-carboxy-benzenesulfonamide]

IC50: 0.005 µM
inhibition at 0.2 µM [1]: 95%
Compound: Cc1c(N(Cc2ccc(F)c(C(F)(F)F)c2)S(=O)(=O)c2ccc(C(=O)O)cc2)sc2cc(F)ccc12 [Compound 427, N-(6-Fluoro-3-methyl-benzo[b]thiophen-2-yl)-N-(4-fluoro-3-trifluoromethyl-benzyl)-4-carboxy-benzenesulfonamide]

IC50: 0.01 µM
inhibition at 0.2 µM [1]: 93%
Compound: CCCCN(c1sc2ccccc2c1Br)S(=O)(=O)c1ccc(-c2nnn[nH]2)cc1 [Compound 428, N-(3-Bromo-benzo[b]thiophen-2-yl)-N-(butyl)-4-(1H-tetrazol-5-yl)-benzenesulfonamide]

IC50: 0.02 µM
inhibition at 0.2 µM [1]: 88%
Compound: O=S1(=O)C(N(Cc2ccc(F)c(C(F)(F)F)c2)S(=O)(=O)c2ccccc2)=C(Br)c2ccccc21 [Compound 431, N-(3-Bromo-1,1-dioxo-benzo[b]thiophen-2-yl)-N-(4-fluoro-3-trifluoromethyl-benzyl)-benzenesulfonamide]

IC50: 0.033 µM
inhibition at 0.2 µM [1]: 93%
Compound: CCCCN(C1=C(Br)c2ccccc2S1(=O)=O)S(=O)(=O)c1ccc(C(=O)OC)cc1 [Compound 433, N-(3-Bromo-1,1-dioxo-benzo[b]thiophen-2-yl)-N-(butyl)-4-carbomethoxy-benzenesulfonamide]

IC50: 0.033 µM
inhibition at 0.2 µM [1]: 95%
Compound: CCCCN(C1=C(Br)c2ccccc2S1(=O)=O)S(=O)(=O)c1ccc(C(=O)O)cc1 [Compound 435, N-(Butyl)-N-(3-bromo-1,1-dioxo-1H-benzo[b]thiophen-2-yl)-4-carboxy-benzenesulfonamide]

IC50: 0.004 µM
inhibition at 0.2 µM [1]: 89%
Compound: CCCCN(C1=C(OC)c2ccccc2S1(=O)=O)S(=O)(=O)c1ccc(C(=O)OC)cc1 [Compound 436, N-(Butyl)-N-(3-methoxy-1,1-dioxo-1H-benzo[b]thiophen-2-yl)-4-carbomethoxy-benzenesulfonamide]

inhibition at 0.2 µM [1]: 37%
Compound: CN(C)CCN(c1sc2ccccc2c1Br)S(=O)(=O)c1ccc(C(=O)O)cc1 [Compound 441, N-(3-Bromo-benzo[b]thiophen-2-yl)-N-(2-(dimethylamino)ethyl)-4-carboxy-benzenesulfonamide]

IC50: 0.067 µM
inhibition at 0.2 µM [1]: 81%
Compound: CCCCN(c1cc2ccccc2s1)S(=O)(=O)c1ccc(-c2noc(=O)[nH]2)cc1 [Compound 442, N-(Benzo[b]thiophen-2-yl)-N-(butyl)-4-(5-oxo-4,5-dihydro-[1,2,4]oxadiazol-3-yl)-benzenesulfonamide]

IC50: 0.122 µM
inhibition at 0.2 µM [1]: 92%
Compound: CCCCN(c1cc2ccccc2s1)S(=O)(=O)c1ccc(N(C)C)cc1 [Compound 444, N-(Benzo[b]thiophen-2-yl)-N-(butyl)-4-dimethylamino-benzenesulfonamide]

inhibition at 0.2 µM [1]: 58%
Compound: CCCCN(c1cc2ccccc2s1)S(=O)(=O)c1ccc(N2CCCC2)cc1 [Compound 445, N-(Benzo[b]thiophen-2-yl)-N-(butyl)-4-pyrrolidin-1-yl-benzenesulfonamide]

inhibition at 0.2 µM [1]: 19%
Compound: CCCCN(c1cc2ccccc2s1)S(=O)(=O)c1ccc(N2CCN(C)CC2)cc1 [Compound 447, N-(Benzo[b]thiophen-2-yl)-N-(butyl)-4-(4-methyl-piperazin-1-yl)-benzenesulfonamide]

IC50: 0.012 µM
inhibition at 0.2 µM [1]: 102%
Compound: CCCCN(c1sc2ccccc2c1C)S(=O)(=O)c1cccnc1N(C)C [Compound 448, N-(3-Methyl-benzo[b]thiophen-2-yl)-N-(butyl)-2-dimethylamino-pyridin-3-yl-sulfonamide]

IC50: 0.002 µM
inhibition at 0.2 µM [1]: 101%
Compound: O=C(O)c1ccc(S(=O)(=O)N(CCOC2CCCCC2)c2sc3ccccc3c2Br)cc1 [Compound 453, N-(3-Bromo-benzo[b]thiophen-2-yl)-N-(2-(cyclohexyloxy)ethyl)-4-carboxy-benzenesulfonamide]
